Test results from BindingDB's records for doi:10.7270/Q2DR2SWV (Vanderbilt Screening Center For Gpcrs, Ion Channels and …, 2010).

Target: Metabotropic glutamate receptor 4 [Q124R] (Rattus norvegicus, UniProt P31423, Q124R)
Experiment: PubChem AID 2185

Metabotropic glutamate receptor 4 [Q124R], sequence (P31423 33-912 Q124R limits assumed): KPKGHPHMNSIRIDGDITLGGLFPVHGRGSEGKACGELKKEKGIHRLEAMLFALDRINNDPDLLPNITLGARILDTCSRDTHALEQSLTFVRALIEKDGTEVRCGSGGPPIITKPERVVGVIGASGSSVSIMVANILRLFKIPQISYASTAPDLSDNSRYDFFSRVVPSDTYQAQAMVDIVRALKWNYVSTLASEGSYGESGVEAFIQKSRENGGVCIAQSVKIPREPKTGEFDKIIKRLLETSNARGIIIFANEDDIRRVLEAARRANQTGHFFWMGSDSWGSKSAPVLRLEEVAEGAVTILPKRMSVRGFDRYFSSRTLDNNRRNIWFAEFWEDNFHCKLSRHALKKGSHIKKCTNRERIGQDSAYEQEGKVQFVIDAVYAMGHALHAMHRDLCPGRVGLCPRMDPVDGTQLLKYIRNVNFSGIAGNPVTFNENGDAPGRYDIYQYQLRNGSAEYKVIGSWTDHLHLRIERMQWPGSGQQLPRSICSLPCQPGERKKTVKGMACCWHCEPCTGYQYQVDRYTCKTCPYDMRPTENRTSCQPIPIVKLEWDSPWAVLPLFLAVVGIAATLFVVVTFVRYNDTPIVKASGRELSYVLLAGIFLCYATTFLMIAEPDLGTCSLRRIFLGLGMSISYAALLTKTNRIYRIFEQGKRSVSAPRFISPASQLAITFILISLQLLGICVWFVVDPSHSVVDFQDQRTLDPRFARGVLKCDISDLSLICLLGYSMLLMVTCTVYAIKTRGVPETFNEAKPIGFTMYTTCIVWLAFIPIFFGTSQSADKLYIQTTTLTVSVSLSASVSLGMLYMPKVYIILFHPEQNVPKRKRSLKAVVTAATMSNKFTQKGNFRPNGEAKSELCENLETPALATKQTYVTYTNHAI

SMILES	EC50
O=C(Nc1ccc(Cl)c(C(F)(F)F)c1)c1ccccn1	1710 nM
O=C(Nc1ccc(-n2c(O)c3c(c2O)[C@H]2CC[C@@H]3O2)c(Cl)c1)c1ccccn1 [VU0405235-1]	2290 nM
COc1ccc(NC(=O)c2ccccn2)cc1OC	2350 nM
COc1cc(NC(=O)c2ccccn2)ccc1C	208 nM
COc1cc(NC(=O)c2ccccn2)ccc1F	374 nM
O=C(Nc1ccc(-n2c(O)ccc2O)c(Cl)c1)c1ccccn1 [N-[3-chloro-4-(2,5-dioxopyrrolidin-1-yl)phenyl]pyridine-2-carboxamide]	6890 nM
O=C(Nc1ccc(-n2c(O)c3c(c2O)CCCC3)c(Cl)c1)c1ccccn1 [VU0366515-1]	650 nM
COc1ccc(NC(=O)c2ccccn2)cc1Cl	738 nM
O=C(Nc1ccc(F)c(C(F)(F)F)c1)c1ccccn1	999 nM
CC1(C)c2c1c(O)n(-c1ccc(NC(=O)c3ccccn3)cc1Cl)c2O [N-[3-chloranyl-4-[(1S,5R)-6,6-dimethyl-2,4-bis(oxidanylidene)-3-azabicyclo[3.1.0]hexan-3-yl]phenyl]pyridine-2-carboxamide]	690 nM
O=C(Nc1ccc(-n2c(O)cc(-c3ccccc3)c2O)c(Cl)c1)c1ccccn1 [N-[3-chloro-4-(2,5-dioxo-3-phenyl-1-pyrrolidinyl)phenyl]-2-pyridinecarboxamide]	490 nM
